Source: patent US20130296311A1, “INHIBITORS OF HCV NS5A” (PRESIDIO PHARMACEUTICALS, INC., priority 2010, published 2013)

What follows are molecules tested on HCV 1b_Huh-Luc/Neo-ET cell line persistently expressing a bicistronic genotype 1b replicon in Huh 7 cells (assay: HCV replicon assay (luciferase readout, 72 h)). Details: Hepatitis C virus, Huh-7, 72 h, read-out: Inhibition of HCV.
Assay type: cell-based, HCV genotype 1b
How it was run: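 Huh 7 cells carrying a bicistronic genotype 1b luciferase/neo replicon received compound in triplicate the day after plating. After 72 h, replicon levels were read as Bright-Glo luciferase activity, expressed as % of control; EC50 was fitted with a four-parameter logistic and determined several times.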

Row | Structure (SMILES) | EC50 [nM]
1 | COC(=O)N[C@@H](C(=O)N1CCC[C@H]1c1nc2ccc(C#Cc3ccc4nc([C@@H]5CCCN5C(=O)[C@H](NC(=O)OC)C(C)C)[nH]c4c3)cc2[nH]1)C(C)C [Compound 853] | < 1

Same assay, conditions: Hepatitis C virus, Huh-7, 72 h, read-out: Inhibition of HCV genotype 1b

Row | Structure (SMILES) | EC50 [nM]
2 | COC(=O)N[C@@H](C(=O)N1CCC[C@H]1c1ncc(-c2ccc(C#Cc3ccc(-c4cnc([C@@H]5CCCN5C(=O)[C@@H](c5ccccc5)N(C)C)[nH]4)cc3)cc2)[nH]1)c1ccccc1 [Compound 174] | < 1
3 | CC(C)[C@@H](NC(=O)N1CCC(O)CC1)C(=O)N1CCC[C@H]1c1ncc(-c2ccc(C#Cc3ccc(-c4cnc([C@@H]5CCCN5C(=O)[C@H](NC(=O)N5CCC(O)CC5)C(C)C)[nH]4)cc3)cc2)[nH]1 [Compound 959] | < 1
4 | COC(=O)N[C@@H](C(=O)N1CCC[C@H]1c1ncc(-c2ccc(C#Cc3ccc(-c4cnc([C@@H]5CCCN5C(=O)[C@H](NC(=O)[C@@H]5CCCO5)c5ccccc5)[nH]4)cc3)cc2)[nH]1)c1ccccc1 [Compound 195] | < 1
5 | CNC(=O)N[C@@H](C(=O)N1CCC[C@H]1c1ncc(-c2ccc(C#Cc3ccc(-c4cnc([C@@H]5CCCN5C(=O)[C@H](NC(=O)NC)c5ccccc5)[nH]4)cc3)cc2)[nH]1)c1ccccc1 [Compound 162] | < 1
6 | COC(=O)N[C@H](C(=O)N1CCC[C@H]1c1ncc(-c2ccc(C#Cc3ccc(-c4cnc([C@@H]5CCCN5C(=O)[C@@H](NC(=O)OC)[C@@H](C)O)[nH]4)cc3)cc2)[nH]1)[C@@H](C)O [Compound 283] | < 1
7 | COC(=O)N[C@H](C(=O)N1CCC[C@H]1c1ncc(-c2ccc(C#Cc3ccc(-c4cnc([C@@H]5CCCN5C(=O)[C@@H](NC(=O)N5CCN(CCO)CC5)c5ccccc5)[nH]4)cc3)cc2)[nH]1)C(C)C [Compound 990] | 1 to 9.9
8 | COC[C@H](NC(=O)OC)C(=O)N1CCC[C@H]1c1ncc(-c2ccc(C#Cc3ccc(-c4cnc([C@@H]5CCCN5C(=O)[C@H](COC)NC(=O)OC)[nH]4)cc3)cc2)[nH]1 [Compound 976] | < 1
9 | COC(=O)N[C@@H](C(=O)N1CCC[C@H]1c1ncc(-c2ccc(C#Cc3ccc(-c4cnc([C@@H]5CCCN5C(=O)[C@H](NC(=O)N5CCCCC5)c5ccccc5)[nH]4)cc3)cc2)[nH]1)c1ccccc1 [Compound 242] | < 1
10 | C[C@@H](c1ncc(-c2ccc(C#Cc3ccc(-c4cnc([C@@H]5CCCN5C(=O)[C@H](NC(=O)C5CC5)c5ccccc5)[nH]4)cc3)cc2)[nH]1)N(C)C(=O)[C@H](NC(=O)C1CC1)c1ccccc1 [Compound 278] | < 1
11 | COC(=O)N[C@@H](C(=O)N1CCC[C@H]1c1ncc(-c2ccc(C#Cc3ccc(-c4cnc([C@@H]5CCCN5C(=O)[C@H](NC(=O)N5CCC[C@H](O)C5)c5ccccc5)[nH]4)cc3)cc2)[nH]1)c1ccccc1 [Compound 263] | < 1
12 | COC(=O)N[C@@H](C(=O)N1CCC[C@H]1c1ncc(-c2ccc(C#Cc3ccc(-c4cnc([C@@H]5CCCN5C(=O)[C@H](NC(=O)N5CCCC5)c5ccccc5)[nH]4)cc3)cc2)[nH]1)c1ccccc1 [Compound 243] | < 1
13 | COC(=O)N[C@H](C(=O)N1C[C@H](F)C[C@H]1c1ncc(-c2ccc(C#Cc3ccc4nc([C@@H]5CCCN5C(=O)[C@@H](NC(=O)OC)C(C)C)[nH]c4c3)cc2)[nH]1)C(C)C [Compound 1040] | < 1
14 | CN(C)C(=O)N[C@@H](C(=O)N1CCC[C@H]1c1ncc(C#Cc2ccc(C#Cc3cnc([C@@H]4CCCN4C(=O)[C@H](NC(=O)N(C)C)c4ccccc4)[nH]3)cc2)[nH]1)c1ccccc1 [Compound 308] | < 1
15 | COC(=O)N[C@@H](C(=O)N1CCC[C@H]1c1ncc(-c2ccc(C#Cc3ccc(-c4cnc([C@@H]5CCCN5C(=O)[C@@H](c5ccccc5)N5CCOCC5)[nH]4)cc3)cc2)[nH]1)c1ccccc1 [Compound 185] | < 1
16 | COC(=O)N[C@H](C(=O)N1CCC[C@H]1c1ncc(-c2ccc(C#Cc3ccc4nc([C@@H]5CCCN5C(=O)[C@H](NC(=O)OC)C(C)C)[nH]c4c3)cc2)[nH]1)C(C)C [Compound 1054] | < 1
17 | COC(=O)N[C@H](C(=O)N1CCC[C@H]1c1nc(-c2ccc3cc(C#Cc4cnc([C@@H]5CCCN5C(=O)[C@H](NC(=O)OC)c5ccccc5)[nH]4)ccc3c2)c[nH]1)C(C)C [Compound 1077] | < 1

Row | Structure (SMILES) | EC50 [nM]
18 | COC(=O)N[C@@H](C(=O)N1CCC[C@H]1c1ncc(-c2ccc(C#Cc3ccc(-c4cnc([C@@H]5CCCN5C(=O)[C@H](NC(=O)OC)c5ccccc5)[nH]4)c(F)c3)cc2)[nH]1)c1ccccc1 [Compound 1013] | < 1
19 | COC(=O)N[C@@H](C(=O)N1CCC[C@H]1c1ncc(-c2ccc(C#Cc3ccc(C(=O)NC[C@@H]4CCCN4C(=O)[C@H](NC(=O)N4CCN(C)CC4)c4ccccc4)cc3)cc2)[nH]1)c1ccccc1 [Compound 236] | < 1
20 | CC(C)[C@@H](C(=O)N1CCC[C@H]1c1ncc(-c2ccc(C#Cc3ccc(-c4cnc([C@@H]5CCCN5C(=O)[C@H](C(C)C)N5CCOC5=O)[nH]4)cc3)cc2)[nH]1)N1CCOC1=O [Compound 1006] | 10 to 999
21 | COC(=O)N[C@@H](C(=O)N1CCC[C@H]1c1ncc(-c2ccc(C#Cc3ccc4nc([C@@H]5CCCN5C(=O)[C@H](NC(=O)OC)C(C)C)[nH]c4c3)cc2)[nH]1)C(C)C [Compound 861] | 10 to 999
22 | O=S(=O)(Cc1ccccc1)N1CCC[C@H]1c1ncc(-c2ccc(C#Cc3ccc4nc([C@@H]5CCCN5S(=O)(=O)Cc5ccccc5)[nH]c4c3)cc2)[nH]1 [Compound 1042] | > 1000
23 | COC(=O)N[C@@H](CCC(=O)O)C(=O)N1CCC[C@H]1c1ncc(-c2ccc(C#Cc3ccc4nc([C@@H]5CCCN5C(=O)[C@H](CCC(=O)O)NC(=O)OC)[nH]c4c3)cc2)[nH]1 [Compound 1047] | 10 to 999
24 | O=C(N[C@@H](C(=O)N1CCC[C@H]1c1ncc(C#Cc2ccc(C#Cc3cnc([C@@H]4CCCN4C(=O)[C@H](NC(=O)N4CCOCC4)c4ccccc4)[nH]3)cc2)[nH]1)c1ccccc1)N1CCOCC1 [Compound 309] | < 1
25 | COC(=O)N[C@@H](C(=O)N1CCC[C@H]1c1ncc(-c2ccc(C#Cc3ccc(-c4cnc([C@@H]5CCCN5C(=O)[C@H](NC(=O)OC)C(C)C)[nH]4)cc3)cc2)[nH]1)C(C)C [Compound 292] | > 1000
26 | COC(=O)N[C@H](Cc1ccccc1)C(=O)N1CCC[C@H]1c1ncc(-c2ccc(C#Cc3ccc(-c4cnc([C@@H]5CCCN5C(=O)[C@H](NC(=O)OC)c5ccccc5)[nH]4)cc3)cc2)[nH]1 [Compound 180] | < 1
27 | O=C(N[C@@H](C(=O)N1CCC[C@H]1c1ncc(-c2ccc(C#Cc3ccc(-c4cnc([C@@H]5CCCN5C(=O)[C@H](NC(=O)OC5CCOCC5)c5ccccc5)[nH]4)c(F)c3)cc2)[nH]1)c1ccccc1)OC1CCOCC1 [Compound 1014] | < 1
28 | COC(=O)N[C@@H](C(=O)N1CCC[C@H]1c1ncc(C#Cc2ccc(C#Cc3cnc([C@@H]4CCCN4C(=O)[C@@H](c4ccccc4)N(C)C)[nH]3)cc2)[nH]1)c1ccccc1 [Compound 314] | < 1
29 | O=C(N[C@@H](C(=O)N1CCC[C@H]1c1ncc(C#Cc2ccc(-c3ccc(-c4cnc([C@@H]5CCCN5C(=O)[C@H](NC(=O)N5CCOCC5)c5ccccc5)[nH]4)cc3)cc2)[nH]1)c1ccccc1)N1CCOCC1 [Compound 761] | < 1
30 | COC(=O)N[C@@H](C(=O)N[C@H](c1ncc(-c2ccc(C#Cc3ccc(-c4cnc([C@@H]5CCCN5C(=O)[C@H](NC(=O)OC)c5ccccc5)[nH]4)cc3)cc2)[nH]1)C(C)C)c1ccccc1 [Compound 282] | < 1
31 | CN(C)[C@@H](C(=O)N1CCC[C@H]1c1ncc(C#Cc2ccc(-c3cnc([C@@H]4CCCN4C(=O)[C@H](NC(=O)C4CC4)c4ccccc4)[nH]3)cc2)[nH]1)c1ccccc1 [Compound 133] | < 1
32 | COC(=O)N[C@H](C(=O)N1CCC[C@H]1c1ncc(C#Cc2ccc(-c3ccc4nc([C@@H]5CCCN5C(=O)[C@@H](NC(=O)OC)C(C)C)[nH]c4c3)cc2)[nH]1)C(C)C [Compound 1084] | < 1
33 | O=C(N[C@@H](C(=O)N1CCC[C@H]1c1ncc(C#Cc2ccc(-c3cnc([C@@H]4CCCN4C(=O)[C@H](NC(=O)C4CC4)c4ccccc4)[nH]3)cc2)[nH]1)c1ccccc1)C1CC1 [Compound 100] | < 1

Same assay, conditions: Hepatitis C virus, Huh-7, read-out: Inhibition of HCV genotype 1b

Row | Structure (SMILES) | EC50 [nM]
34 | CC[C@H](C)C(NC(=O)OC)C(=O)N1CCC[C@H]1c1nc2ccc(C#Cc3ccc(-c4cnc([C@@H]5CCCN5C(=O)[C@@H](NC(=O)OC)[C@@H](C)OC)[nH]4)cc3)cc2[nH]1 (some centres unmarked) [Compound 1246] | < 1
35 | COC(=O)N[C@H](C(=O)N1CCC[C@H]1c1ncc(-c2ccc(C#Cc3ccc(-c4cnc([C@@H]5CCCN5C(=O)[C@H](NC(=O)OC)c5cccs5)[nH]4)cc3)cc2)[nH]1)[C@@H](C)OC [Compound 1213] | < 1
36 | COC(=O)N[C@@H](C(=O)N1CCC[C@H]1c1ncc(-c2ccc(C#Cc3ccc(-c4cnc([C@@H]5CCCN5C(=O)[C@H](NC(=O)OC)c5ccccc5)[nH]4)cc3C#N)cc2)[nH]1)c1ccccc1 [Compound 1203] | < 1
37 | COC(=O)N[C@H](C(=O)N1CCC[C@H]1c1ncc(-c2ccc(C#Cc3ccc4nc([C@@H]5CCCN5C(=O)[C@@H](NC(=O)OC)[C@@H](C)OC)[nH]c4c3)cc2)[nH]1)C(C)C [Compound 1242] | < 1
38 | COC(=O)N[C@H](C(=O)N1CCC[C@H]1c1nc2ccc(C#Cc3ccc4c(ccc5nc([C@@H]6CCCN6C(=O)[C@@H](NC(=O)OC)C6CCOCC6)[nH]c54)c3)cc2[nH]1)C(C)C [Compound 1287] | < 1
39 | C=CC[C@H](NC(=O)OC)C(=O)N1CCC[C@H]1c1nc2ccc(C#Cc3ccc4c(ccc5nc([C@@H]6CCCN6C(=O)[C@@H](NC(=O)OC)C(C)C)[nH]c54)c3)cc2[nH]1 [Compound 1277] | < 1
40 | COC(=O)N[C@H](C(=O)N1CCC[C@H]1c1ncc(-c2ccc(C#Cc3ccc4c(ccc5nc([C@@H]6CCCN6C(=O)[C@@H](NC(=O)OC)[C@@H](C)OC)[nH]c54)c3)cc2)[nH]1)C(C)C [Compound 1271] | < 1
41 | COC(=O)N[C@H](C(=O)N1CCC[C@H]1c1ncc(-c2ccc3cc(C#Cc4[nH]c([C@@H]5CCCN5C(=O)[C@@H](NC(=O)OC)C(C)C)nc4C(=O)O)ccc3c2)[nH]1)C(C)C [Compound 1267] | < 1
